In patent US20230321253A1, “BIFUNCTIONAL COMPOUNDS AND PHARMACEUTICAL USES THEREOF” (RISEN (SUZHOU) PHARMA TECH CO., LTD., priority 2022, published 2023):

Biological target: T1, KRAS-G12D protein (Homo sapiens, UniProt P01116, G12D)
T1 construct: host or cells: Aspc-1 cells
Test: KRAS-G12D protein degradation study in Aspc-1 cells (western blot)
Type: cell-based
Details: for inhibition at 0.1 µM / inhibition at 0.05 µM / inhibition at 1 µM: ASPC1, 24 h, 24 hours; for inhibition at 0.1 µM: Aspc-1 cells treated with 0.1 μM compound; for inhibition at 0.1 µM / inhibition at 1 µM: read-out: Rate of protein degradation (KRAS^G12D); for inhibition at 0.05 µM: Aspc-1 cells treated with 50 nM compound, read-out: Rate of degradation (KRAS^G12D); for inhibition at 1 µM: Aspc-1 cells treated with 1 μM compound; for DC50: Aspc-1 cells, read-out: DC50 of test compound-induced KRAS^G12D protein degradation
Method: Aspc-1 (Cobioer, CBP60546) cells in exponential growth phase were inoculated on a 6-well cell culture plate (Corning, 3516) at density of 1E6/well; and cells in the plate were cultured in 37° C. incubator containing 5% carbon dioxide. The next day, test compounds were dissolved in DMSO (Sigma, RNBF5902) for the preparation of a 10 mM concentration stock solution. The stock solution was diluted with complete medium (RPMI-1640 supplemented with 10% fetal bovine serum, 1% penicillin-streptomycin), yielding working solutions of various concentrations. The plate, after the addition of compounds, was placed in a 5% carbon dioxide incubator, and incubated at 37° C. for 24 hours (final DMSO concentration was 0.1%). The plate was then removed from the incubator, and the cells were washed twice with precooled PBS (Gibco, 14190250), followed by addition of 80 μL RIPA lysis buffer (containing protease inhibitor (Invitrogen™, AM2696)) to each well. The adherent cells were scraped off with a cell scraper, and the cell lysate was transferred to a 1.5 mL centrifuge tube followed with a 30-minute incubation on ice. The lysate was then clarified with centrifugation at 14000 rpm for 10 min at 4° C. The supernatant was transferred into a new 1.5 mL centrifuge tube, and protein concentration was measured with BCA protein detection kit (Thermo Fisher, 23225). KRAS-G12D protein level was assessed by western blot.
A mixture of cell lysate (40 μL) and loading buffer (10 μL 5×SDS (Beyotime, P0015L)) was denatured in a water bath at 95° C. for 10 min. The denatured protein sample, at 30 μL/well, was loaded into the corresponding well of a 4-20% Bis-Tris gel (Kingsley, M00656). Protein samples were initially electrophoresed at 80 V for 30 minutes, followed by 120 V for 40 minutes, until the bromophenol blue strip ran to an appropriate position. After electrophoresis, iBlot2 (Life Technologies, IB21001) was used to transfer the separated samples onto PVDF film. The PVDF membrane was washed with double-distilled water and then blocked in TBST (Thermo Scientific, 28360) buffer containing 5% non-fat milk, for 2 hours. Blocked membrane was rinsed with tris-buffered saline tween-20 (Thermo Scientific, 28360, TBST) three times, 10 minutes each. Membrane was then incubated with 1:1000 diluted KRAS primary antibody (CST, cat #14429S) overnight at 4° C. Membrane was rinsed as described previously followed by 1 hour incubation of secondary antibody at room temperature. After washing the film three times with TBST, ECL color developing solution was applied, and image was captured with Biorad Chemi Doc gel imager. The band gray value was quantified (Image Lab), and protein degradation level was calculated according to the following formula:
Level of RAS protein expression=(RAS-compound/GAPDH)/(RAS-DMSO/GAPDH)
Level of degradation (%)=(1−Rate of RAS protein expression)×100
The symbols “−”, “+”, “++”, and “+++” indicate that the degradation level of KRAS^G12D protein induced by the test compounds was 10% or less, 11 to 30%, 31 to 60%, and greater than 60%, respectively.
Half-maximum degradation concentrations (DC50s) of exemplary test compounds were calculated using GraphPad Prism and their values are shown in Table 6. The symbols “++++”, “+++”, “++” and “+” indicate DC50 equal or less than 10 nM, 11-50 nM, 51-100 nM, and 101-200 nM, respectively.

T1 sequence (P01116 1-188 isoform P01116-2 G12D): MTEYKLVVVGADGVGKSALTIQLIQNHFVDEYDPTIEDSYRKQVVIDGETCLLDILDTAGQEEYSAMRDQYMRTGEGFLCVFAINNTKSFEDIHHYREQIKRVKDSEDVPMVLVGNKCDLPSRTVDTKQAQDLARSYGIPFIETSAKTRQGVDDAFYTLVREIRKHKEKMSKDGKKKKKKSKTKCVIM

Row | SMILES | inhibition at 0.1 µM [%] | inhibition at 0.05 µM [%] | also measured
1 | C#Cc1c(F)ccc2cc(O)cc(-c3ncc4c(N5CC6CCC(C5)N6)nc(OC5CCN(CCCCCCOc6cc(-c7scnc7C)ccc6CNC(=O)[C@@H]6C[C@@H](O)CN6C(=O)[C@@H](NC(=O)C6(F)CC6)C(C)(C)C)CC5)nc4c3F)c12 [Compound 131] | ≤ 10 |  | 
2 | C#Cc1c(F)ccc2cc(O)cc(-c3ncc4c(N5CC6CCC(C5)N6)nc(O[C@@H]5CCN(CCCCCCCCCCC(=O)N[C@H](C(=O)N6C[C@H](O)C[C@H]6C(=O)N[C@@H](C)c6ccc(-c7scnc7C)cc6)C(C)(C)C)C5)nc4c3F)c12 [Compound 86] | 31 to 60 |  | 
3 | C#Cc1c(F)ccc2cc(O)cc(-c3ncc4c(N5CC6CCC(C5)N6)nc(OCC56CCCN5[C@@H](COC(=O)N5CCC(c7ccc8c(C9CCC(=O)NC9=O)nn(C)c8c7)CC5)CC6)nc4c3F)c12 (stereo partly shown) [Compound 97] | 31 to 60 |  | 
4 | C#Cc1c(F)ccc2cc(O)cc(-c3ncc4c(N5CC6CCC(C5)N6)nc(O[C@@H]5CCN(CCCCCCCCCCCC(=O)N[C@H](C(=O)N6C[C@H](O)C[C@H]6C(=O)N[C@@H](C)c6ccc(-c7scnc7C)cc6)C(C)(C)C)C5)nc4c3F)c12 [Compound 87] | 31 to 60 |  | 
5 | C#Cc1c(F)ccc2cc(O)cc(-c3ncc4c(N5CC6CCC(C5)N6)nc(OCC5(CN6CCC7(CC6)CCN(c6ccc8c(c6)C(=O)N(C6CCC(=O)NC6=O)C8=O)CC7)CC5)nc4c3F)c12 (stereo not shown) [Compound 127] |  | > 60 | 
6 | C#Cc1c(F)ccc2cc(O)cc(-c3ncc4c(N5CC6CCC(C5)N6)nc(OCC5(CN6CCC7(CC6)CC(N6CC=C(c8cccc9c8n(C)c(=O)n9C8CCC(=O)NC8=O)CC6)C7)CC5)nc4c3F)c12 (stereo not shown) [Compound 161] |  | 31 to 60 | 
7 | C#Cc1c(F)ccc2cc(O)cc(-c3ncc4c(N5CC6CCC(C5)N6)nc(OC5CCN(CCCCCNC(=O)CO[C@@H]6C[C@H](C)CC[C@H]6C(C)C)C5)nc4c3F)c12 (stereo partly shown) [Compound 143] |  | 11 to 30 | 
8 | C#Cc1c(F)ccc2cc(O)cc(-c3ncc4c(N5CC6CCC(C5)N6)nc(OCCN5CCN(C(=O)CCCCCOc6cc(-c7scnc7C)ccc6CNC(=O)[C@@H]6C[C@@H](O)CN6C(=O)[C@@H](NC(=O)C6(F)CC6)C(C)(C)C)CC5)nc4c3F)c12 [Compound 132] | 11 to 30 |  | 
9 | C#Cc1c(F)ccc2cc(O)cc(-c3ncc4c(N5CC6CCC(C5)N6)nc(OCC5(CN6CCC7(CC6)CC(N6CCC(c8cccc9c8C(=O)N(C8CCC(=O)NC8=O)C9=O)CC6)C7)CC5)nc4c3F)c12 (stereo not shown) [Compound 171] |  | ≤ 10 | 
10 | CCc1c(F)ccc2cc(O)cc(-c3ncc4c(N5CC6CCC(C5)N6)nc(OCC56CCCN5[C@@H](COC(=O)NCCOCCOCCC(=O)N[C@H](C(=O)N5C[C@H](O)C[C@H]5C(=O)N[C@@H](C)c5ccc(-c7scnc7C)cc5)C(C)(C)C)CC6)nc4c3F)c12 (stereo partly shown) [Compound 58] | 11 to 30 |  | inhibition at 1 µM: 31 to 60%
11 | C#Cc1c(F)ccc2cc(O)cc(-c3ncc4c(N5CC6CCC(C5)N6)nc(OCC5(CN6CCC(CNc7cccc8c(C9CCC(=O)NC9=O)nn(C)c78)CC6)CC5)nc4c3F)c12 (stereo not shown) [Compound 165] |  | 31 to 60 | 
12 | C#Cc1c(F)ccc2cc(O)cc(-c3ncc4c(N5CC6CCC(C5)N6)nc(OC5CCN(CCCCCCCCOc6cc(-c7ncsc7C)ccc6CNC(=O)[C@@H]6C[C@@H](O)CN6C(=O)[C@@H](NC(=O)C6(F)CC6)C(C)(C)C)CC5)nc4c3F)c12 [Compound 76] | ≤ 10 |  | 
13 | C#Cc1c(F)ccc2cc(O)cc(-c3ncc4c(N5CC6CCC(C5)N6)nc(OCC5(CN6CCN(C(=O)CN7CCN(c8ccc(C(=O)NC9CCC(=O)NC9=O)nc8)CC7)CC6)CC5)nc4c3F)c12 (stereo not shown) [Compound 126] |  | ≤ 10 | 
14 | C#Cc1c(F)ccc2cc(O)cc(-c3ncc4c(N5CC6CCC(C5)N6)nc(OCC56CCCN5[C@@H](COC(=O)NCCCCCCCCCCC(=O)N[C@H](C(=O)N5C[C@H](O)C[C@H]5C(=O)N[C@@H](C)c5ccc(-c7scnc7C)cc5)C(C)(C)C)CC6)nc4c3F)c12 (stereo partly shown) [Compound 93] | > 60 |  | DC50: 51 to 100 nM
15 | C#Cc1c(F)ccc2cc(O)cc(-c3ncc4c(N5CC6CCC(C5)N6)nc(OC[C@@H]5C[C@@H](NC(=O)CCCCCCCCCCC(=O)N[C@H](C(=O)N6C[C@H](O)C[C@H]6C(=O)N[C@@H](C)c6ccc(-c7scnc7C)cc6)C(C)(C)C)CN5C)nc4c3F)c12 [Compound 90] | ≤ 10 |  | 
16 | C#Cc1c(F)ccc2cc(O)cc(-c3ncc4c(N5CC6CCC(C5)N6)nc(OCCCN5CCN(CCCC(=O)N[C@H](C(=O)N6C[C@H](O)C[C@H]6C(=O)NCc6ccc(-c7scnc7C)cc6)C(C)(C)C)CC5)nc4c3F)c12 [Compound 30] |  |  | inhibition at 1 µM: 11 to 30%
17 | C#Cc1c(F)ccc2cc(O)cc(-c3ncc4c(N5CC6CCC(C5)N6)nc(OCC5(CN6CCN(C(=O)CN7CCN(c8ccc(NC9CCC(=O)NC9=O)cc8F)CC7)CC6)CC5)nc4c3F)c12 (stereo not shown) [Compound 108] | ≤ 10 |  | 
18 | C#Cc1c(F)ccc2cc(O)cc(-c3ncc4c(N5CC6CCC(C5)N6)nc(OCC5(CN6CCC7(CC6)CC(N6CCC(c8cccc(C9CCC(=O)NC9=O)c8)CC6)C7)CC5)nc4c3F)c12 (stereo not shown) [Compound 162] |  | ≤ 10 | 
19 | C#Cc1c(F)ccc2cc(O)cc(-c3ncc4c(N5CC6CCC(C5)N6)nc(OC5CCN(CCOCCNC(=O)CO[C@@H]6C[C@H](C)CC[C@H]6C(C)C)C5)nc4c3F)c12 (stereo partly shown) [Compound 148] |  | ≤ 10 | 
20 | C#Cc1c(F)ccc2cc(O)cc(-c3ncc4c(N5CC6CCC(C5)N6)nc(OCC5(CN6CCN(CC7CCN(c8ccc(NC9CCC(=O)NC9=O)cc8F)CC7)CC6)CC5)nc4c3F)c12 (stereo not shown) [Compound 109] | 31 to 60 |  | 
21 | C#Cc1c(F)ccc2cc(O)cc(-c3ncc4c(N5CC6CCC(C5)N6)nc(OCC5(CN6CCC7(CC6)CC(N6CCN(c8cccc9c8C(=O)N(C8CCC(=O)NC8=O)C9=O)CC6)C7)CC5)nc4c3F)c12 (stereo not shown) [Compound 153] |  | 31 to 60 | 
22 | C#Cc1c(F)ccc2cc(O)cc(-c3ncc4c(N5CC6CCC(C5)N6)nc(OCC5(CN6CCC7(CCN(c8ccc(NC9CCC(=O)NC9=O)cc8F)CC7)C6)CC5)nc4c3F)c12 (stereo not shown) [Compound 125] |  | 31 to 60 | 
23 | C#Cc1c(F)ccc2cc(O)cc(-c3ncc4c(N5CC6CCC(C5)N6)nc(O[C@H]5CCN(CCCCCCCCCCCC(=O)N[C@H](C(=O)N6C[C@H](O)C[C@H]6C(=O)N[C@@H](C)c6ccc(-c7scnc7C)cc6)C(C)(C)C)C5)nc4c3F)c12 [Compound 84] | 31 to 60 |  | 
24 | C#Cc1c(F)ccc2cc(O)cc(-c3ncc4c(N5CC6CCC(C5)N6)nc(OCC5(CN6CCN(c7ccc(NC8CCC(=O)NC8=O)cc7F)CC6)CC5)nc4c3F)c12 (stereo not shown) [Compound 124] |  | 11 to 30 | 
25 | C#Cc1c(F)ccc2cc(O)cc(-c3ncc4c(N5CC6CCC(C5)N6)nc(OCC5(CN6CCN(C7CC(C(=O)N8CCC(c9ccc%10c(C%11CCC(=O)NC%11=O)nn(C)c%10c9)CC8)C7)CC6)CC5)nc4c3F)c12 (stereo not shown) [Compound 118] | > 60 |  | DC50: < 10 nM
26 | C#Cc1c(F)ccc2cc(O)cc(-c3ncc4c(N5CC6CCC(C5)N6)nc(OCC5CCN(CCCCCCCCCCC(=O)N6CCC(c7ccc8c(C9CCC(=O)NC9=O)nn(C)c8c7)CC6)C5)nc4c3F)c12 (stereo not shown) [Compound 57] | > 60 |  | inhibition at 1 µM: > 60%
27 | C#Cc1c(F)ccc2cc(O)cc(-c3ncc4c(N5CC6CCC(C5)N6)nc(OCCCN5CCN(CC(=O)N6CCN(C(=O)C[C@H](NC(=O)[C@@H]7C[C@@H](O)CN7C(=O)[C@@H](NC(=O)C7(F)CC7)C(C)(C)C)c7ccc(-c8scnc8C)cc7)CC6)CC5)nc4c3F)c12 [Compound 63] | ≤ 10 |  | inhibition at 1 µM: 11 to 30%
28 | C#Cc1c(F)ccc2cc(O)cc(-c3ncc4c(N5CC6CCC(C5)N6)nc(OCCCN5CCN(C(=O)C[C@H](NC(=O)[C@@H]6C[C@@H](O)CN6C(=O)[C@@H](NC(=O)C6(F)CC6)C(C)(C)C)c6ccc(-c7scnc7C)cc6)CC5)nc4c3F)c12 [Compound 64] | ≤ 10 |  | inhibition at 1 µM: 11 to 30%
